Results taken from BindingDB's records for doi:10.1016/s0960-894x(02)00371-2 (Neurocrine Biosciences, 2002).

Molecular target: Gonadotropin-releasing hormone receptor (Rattus norvegicus) (UniProt P30969)
Assay: Compound was evaluated in cloned rat Gonadotropin-releasing hormone receptor assay for its ability to displace the binding of [125 I-Tyr, DLeu, NMeLeu, Pro-NEt]GnRH agonist

Gonadotropin-releasing hormone receptor (Rattus norvegicus), sequence (P30969 whole entry, looked up): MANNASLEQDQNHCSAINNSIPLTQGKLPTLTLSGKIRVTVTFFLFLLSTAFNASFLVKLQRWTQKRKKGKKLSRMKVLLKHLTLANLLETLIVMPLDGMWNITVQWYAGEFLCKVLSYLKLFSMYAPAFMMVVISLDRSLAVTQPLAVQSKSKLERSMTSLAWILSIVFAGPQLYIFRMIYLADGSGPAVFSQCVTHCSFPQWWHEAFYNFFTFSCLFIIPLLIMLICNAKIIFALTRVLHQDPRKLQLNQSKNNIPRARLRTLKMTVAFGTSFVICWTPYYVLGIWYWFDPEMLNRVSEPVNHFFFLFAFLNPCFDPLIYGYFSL

Molecule `COc1ccc(-c2nc3n(Cc4ccccc4F)c(C)c(-c4ccc5c(c4)OCO5)c(=O)n3c2CN(C)CCc2ccccn2)cc1` [6-Benzo[1,3]dioxol-5-yl-8-(2-fluoro-benzyl)-2-(4-methoxy-phenyl)-7-methyl-3-{[methyl-(2-pyridin-2-yl-ethyl)-amino]-methyl}-8H-imidazo[1,2-a]pyrimidin-5-one] has a Ki of 12 µM.
